Experiments:
[1] = species on record: Rattus norvegicus; assay: Inhibition of [3H]-dopamine uptake into striatal membrane preparations; format: functional, Striatum
[2] = species on record: Rattus norvegicus; assay: Inhibition of [3H]dopamine uptake by striatal membrane preparations; format: functional, Striatum
[3] = species on record: Rattus norvegicus; assay: Inhibitory concentration for [3H]dopamine uptake by striatal membrane preparations in presence of 20 nM compound 43; format: functional; conditions: Striatum
[4] = species on record: Rattus norvegicus; assay: Inhibitory concentration for [3H]dopamine uptake by striatal membrane preparations in presence of 500 nM compound 5; format: functional; conditions: Striatum
[5] = species on record: Rattus norvegicus; assay: Inhibitory concentration for [3H]-dopamine uptake by striatal membrane preparations in presence of 50 nM compound 43; format: functional; conditions: Striatum
[6] = species on record: Rattus norvegicus; assay: Inhibitory concentration for [3H]-dopamine uptake by striatal membrane preparations in presence of 1000 nM compound 5; format: functional; conditions: Striatum

SMILES	Ki [1]	other results
Clc1ccc(OCCN2CCC(c3ccc(Cl)cc3)CC2)cc1	0.09 µM	–
Fc1ccc(OCCN2CCC(c3ccccc3)CC2)cc1	2.72 µM	–
Fc1ccc(OCCN2CCC(c3ccc(F)cc3)CC2)cc1	–	Ki [2]: 0.84 µM
Fc1ccc(CCN2CCC(c3ccc(F)cc3)CC2)cc1	1.36 µM	–
Fc1ccc(CCCCN2CCC(c3ccc(F)cc3)CC2)cc1	2.54 µM	–
OC1(c2ccccc2)CCN(CCOc2ccc(F)cc2)CC1	17.6 µM	–
O=C(CCN1CCC(c2ccccc2)CC1)c1ccc(F)cc1	1.56 µM	–
Fc1ccc(CN2CCC(c3ccc(F)cc3)CC2)cc1	> 10 µM	–
O=C(CCCN1CCC(c2ccc(F)cc2)CC1)c1ccc(F)cc1	3.17 µM	–
O=C(CN1CCC(c2ccc(F)cc2)CC1)c1ccc(F)cc1	4.33 µM	–
O=C(CCN1CCC(c2ccc(F)cc2)CC1)c1ccc(F)cc1	2.67 µM	–
COC(=O)[C@H]1[C@@H](OC(=O)c2ccccc2)C[C@@H]2CC[C@H]1N2C [COCAINE]	–	IC50 [3]: 0.49 µM; IC50 [4]: 0.538 µM; IC50 [5]: 0.696 µM; IC50 [6]: 0.686 µM

— ChEMBL document CHEMBL1134191, “Pharmacophore-based discovery, synthesis, and biological evaluation of 4-phenyl-1-arylalkyl piperidines as dopamine transporter inhibitors” (Bioorg Med Chem Lett, 2001)
